Test results: ChEMBL document CHEMBL1201861, “Genomics of Drug Sensitity in Cancer screening data, Wellcome Trust Sanger Institute”
One block for each compound: values may come before it.

Legend:
LC-1F = test: cells; assay type: functional, cell-based, Homo sapiens; details: Homo sapiens, LC-1F;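 note: growth inhibition of human LC-1F cells, read out with a cell viability assay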
Description: SANGER: Inhibition of human LC-1F cell growth in a cell viability assay.

YT = test: cells; assay type: functional, cell-based, Homo sapiens; details: Homo sapiens, YT
Description: SANGER: Inhibition of human YT cell growth in a cell viability assay.

SIG-M5 = test: cells; assay type: functional, cell-based, Homo sapiens; details: Homo sapiens, SIG-M5;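 note: cell viability assay read-out, measuring how strongly growth of cultured human SIG-M5 cells is inhibited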
Description: SANGER: Inhibition of human SIG-M5 cell growth in a cell viability assay.

MONO-MAC-6 = test: cells; assay type: functional, cell-based, Homo sapiens; details: Homo sapiens, MONO-MAC-6;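 note: cell viability assay measuring growth inhibition of human MONO-MAC-6 cells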
Description: SANGER: Inhibition of human MONO-MAC-6 cell growth in a cell viability assay.

NCCIT = test: SANGER: Inhibition of human NCCIT cell growth in a cell viability assay.; assay type: functional, cell-based; details: Homo sapiens, NCCIT
NCI-H1694 = test: cells; assay type: functional, cell-based, Homo sapiens; details: Homo sapiens, NCI-H1694;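 note: cell viability assay measuring inhibition of growth in human NCI-H1694 cells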
Description: SANGER: Inhibition of human NCI-H1694 cell growth in a cell viability assay.

NCI-H1882 = test: cells; assay type: functional, cell-based, Homo sapiens; details: Homo sapiens, NCI-H1882;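 note: growth inhibition of the cell line, determined with a viability assay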
Description: SANGER: Inhibition of human NCI-H1882 cell growth in a cell viability assay.

CA46 = test: cells; assay type: functional, cell-based, Homo sapiens; details: Homo sapiens, CA46;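 note: growth inhibition of human CA46 cells, read out by a cell viability assay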
Description: SANGER: Inhibition of human CA46 cell growth in a cell viability assay.

NB7 = test: cells; assay type: functional, cell-based, Homo sapiens; details: Homo sapiens, NB7;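 note: growth inhibition of NB7 cells, read out with a cell viability assay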
Description: SANGER: Inhibition of human NB7 cell growth in a cell viability assay.

IMR-5 = test: cells; assay type: functional, cell-based, Homo sapiens; details: Homo sapiens, IMR-5;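 note: growth inhibition of human IMR-5 cells, read out with a cell viability assay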
Description: SANGER: Inhibition of human IMR-5 cell growth in a cell viability assay.

MOLT-13 = test: cells; assay type: functional, cell-based, Homo sapiens; details: Homo sapiens, MOLT-13;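 note: IC50 for suppression of MOLT-13 cell growth, read out with a cell viability assay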
Description: SANGER: Inhibition of human MOLT-13 cell growth in a cell viability assay.

WSU-NHL = test: cells; assay type: functional, cell-based, Homo sapiens; details: Homo sapiens, WSU-NHL;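 note: growth inhibition of human WSU-NHL cells, read out with a cell viability assay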
Description: SANGER: Inhibition of human WSU-NHL cell growth in a cell viability assay.

NCI-H345 = test: cells; assay type: functional, cell-based, Homo sapiens; details: Homo sapiens, NCI-H345;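 note: growth inhibition of NCI-H345 cells measured with a cell viability assay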
Description: SANGER: Inhibition of human NCI-H345 cell growth in a cell viability assay.

NCI-H716 = test: cells; assay type: functional, cell-based, Homo sapiens; details: Homo sapiens, NCI-H716;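 note: growth inhibition of human NCI-H716 cells, measured by a cell viability assay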
Description: SANGER: Inhibition of human NCI-H716 cell growth in a cell viability assay.

A673 = test: cells; assay type: functional, cell-based, Homo sapiens; details: Homo sapiens, A673;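 note: growth inhibition of human A673 cells, read out through a cell viability assay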
Description: SANGER: Inhibition of human A673 cell growth in a cell viability assay.

G-402 = test: cells; assay type: functional, cell-based, Homo sapiens; details: Homo sapiens, G-402
Description: SANGER: Inhibition of human G-402 cell growth in a cell viability assay.

MCF7 = test: cells; assay type: functional, cell-based, Homo sapiens; details: Homo sapiens, MCF7;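 note: growth inhibition of human MCF7 cells, read out with a cell viability assay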
Description: SANGER: Inhibition of human MCF7 cell growth in a cell viability assay.

Huh-7 = test: cells; assay type: functional, cell-based, Homo sapiens; details: Homo sapiens, Huh-7;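 note: HuH-7 cell growth inhibition, read out with a cell viability assay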
Description: SANGER: Inhibition of human HuH-7 cell growth in a cell viability assay.

MFE-280 = test: cells; assay type: functional, cell-based, Homo sapiens; details: Homo sapiens, MFE-280;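 note: growth inhibition of MFE-280 cells, determined with a cell viability readout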
Description: SANGER: Inhibition of human MFE-280 cell growth in a cell viability assay.

COLO-678 = test: cells; assay type: functional, cell-based, Homo sapiens; details: Homo sapiens, COLO-678
Description: SANGER: Inhibition of human COLO-678 cell growth in a cell viability assay.

MDA-MB-361 = test: cells; assay type: functional, cell-based, Homo sapiens; details: Homo sapiens, MDA-MB-361
HuO-3N1 = test: cells; assay type: functional, cell-based, Homo sapiens; details: Homo sapiens, HuO-3N1;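 note: cell viability readout used to measure how strongly compounds suppress proliferation of human HuO-3N1 cells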
Description: SANGER: Inhibition of human HuO-3N1 cell growth in a cell viability assay.

A204 = test: cells; assay type: functional, cell-based, Homo sapiens; details: Homo sapiens, A204;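 note: growth inhibition of human A204 cells, read out with a cell viability assay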
Description: SANGER: Inhibition of human A204 cell growth in a cell viability assay.

OAW-42 = test: cells; assay type: functional, cell-based, Homo sapiens; details: Homo sapiens, OAW-42;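 note: growth inhibition of OAW-42 cells, read out with a cell viability assay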
Description: SANGER: Inhibition of human OAW-42 cell growth in a cell viability assay.

SCC-25 = test: cells; assay type: functional, cell-based, Homo sapiens; details: Homo sapiens, SCC-25;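 note: growth inhibition of SCC-25 cells, measured with a cell viability assay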
Description: SANGER: Inhibition of human SCC-25 cell growth in a cell viability assay.

OVCAR-5 = test: cells; assay type: functional, cell-based, Homo sapiens; details: Homo sapiens, OVCAR-5;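 note: growth inhibition of human OVCAR-5 cells, read out with a cell viability assay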
Description: SANGER: Inhibition of human OVCAR-5 cell growth in a cell viability assay.

NCI-H28 = test: cells; assay type: functional, cell-based, Homo sapiens; details: Homo sapiens, NCI-H28;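 note: growth inhibition of human NCI-H28 cells, read out as cell viability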
Description: SANGER: Inhibition of human NCI-H28 cell growth in a cell viability assay.

COLO-741 = test: cells; assay type: functional, cell-based, Homo sapiens; details: Homo sapiens, COLO-741
Description: SANGER: Inhibition of human COLO-741 cell growth in a cell viability assay.

CP50-MEL-B = test: cells; assay type: functional, cell-based, Homo sapiens; details: Homo sapiens, CP50-MEL-B;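 note: growth inhibition of the human cell line, measured with a cell viability read-out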
Description: SANGER: Inhibition of human CP50-MEL-B cell growth in a cell viability assay.

NCI-H661 = test: cells; assay type: functional, cell-based, Homo sapiens; details: Homo sapiens, NCI-H661;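 note: cell viability assay read-out, IC50 being the concentration that inhibits growth of the cells by half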
Description: SANGER: Inhibition of human NCI-H661 cell growth in a cell viability assay.

ACHN = test: cells; assay type: functional, cell-based, Homo sapiens; details: Homo sapiens, ACHN;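 note: cell viability read-out used to gauge how strongly growth of human ACHN cells is suppressed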
Description: SANGER: Inhibition of human ACHN cell growth in a cell viability assay.

SW837 = test: cells; assay type: functional, cell-based, Homo sapiens; details: Homo sapiens, SW837;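 note: growth inhibition of SW837 cells, determined with a cell viability assay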
Description: SANGER: Inhibition of human SW837 cell growth in a cell viability assay.

HCC1937 = test: cells; assay type: functional, cell-based, Homo sapiens; details: Homo sapiens, HCC1937;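 note: growth inhibition measured with a cell viability read-out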
Description: SANGER: Inhibition of human HCC1937 cell growth in a cell viability assay.

NCI-H1573 = test: cells; assay type: functional, cell-based, Homo sapiens; details: Homo sapiens, NCI-H1573;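 note: growth inhibition of NCI-H1573 cells, read out with a cell viability assay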
Description: SANGER: Inhibition of human NCI-H1573 cell growth in a cell viability assay.

639-V = test: cells; assay type: functional, cell-based, Homo sapiens; details: Homo sapiens, 639-V;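 note: growth inhibition of 639-V cells, read out with a cell viability assay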
Description: SANGER: Inhibition of human 639-V cell growth in a cell viability assay.

SW 1116 = test: cells; assay type: functional, cell-based, Homo sapiens; details: Homo sapiens, SW 1116;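 note: growth inhibition of SW1116 cells, read out with a cell viability assay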
Description: SANGER: Inhibition of human SW1116 cell growth in a cell viability assay.

T98G = test: cells; assay type: functional, cell-based, Homo sapiens; details: Homo sapiens, T98G;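 note: growth inhibition of T98G cells, read out by a cell viability assay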
Description: SANGER: Inhibition of human T98G cell growth in a cell viability assay.

NCI-H2009 = test: cells; assay type: functional, cell-based, Homo sapiens; details: Homo sapiens, NCI-H2009;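 note: cell viability assay measuring inhibition of NCI-H2009 cell growth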
Description: SANGER: Inhibition of human NCI-H2009 cell growth in a cell viability assay.

HSC-4 = test: cells; assay type: functional, cell-based, Homo sapiens; details: Homo sapiens, HSC-4;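 note: growth inhibition of human HSC-4 cells, read out with a cell viability assay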
Description: SANGER: Inhibition of human HSC-4 cell growth in a cell viability assay.

LCLC-97TM1 = test: cells; assay type: functional, cell-based, Homo sapiens; details: Homo sapiens, LCLC-97TM1;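 note: cell viability assay measuring growth inhibition of human LCLC-97TM1 cells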
Description: SANGER: Inhibition of human LCLC-97TM1 cell growth in a cell viability assay.

NCI-H2342 = test: cells; assay type: functional, cell-based, Homo sapiens; details: Homo sapiens, NCI-H2342;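 note: growth inhibition of the cancer cell line, determined with a cell viability assay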
Description: SANGER: Inhibition of human NCI-H2342 cell growth in a cell viability assay.

RT-112 = test: cells; assay type: functional, cell-based, Homo sapiens; details: Homo sapiens, RT-112
Description: SANGER: Inhibition of human RT-112 cell growth in a cell viability assay.

KYSE-450 = test: cells; assay type: functional, cell-based, Homo sapiens; details: Homo sapiens, KYSE-450;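 note: cell growth inhibition measured by a viability assay in human KYSE-450 cells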
Description: SANGER: Inhibition of human KYSE-450 cell growth in a cell viability assay.

T84 = test: cells; assay type: functional, cell-based, Homo sapiens; details: Homo sapiens, T84;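 note: growth inhibition measured with a cell viability readout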
Description: SANGER: Inhibition of human T84 cell growth in a cell viability assay.

NCI-H2347 = test: cells; assay type: functional, cell-based, Homo sapiens; details: Homo sapiens, NCI-H2347;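 note: growth inhibition of the cell line, read out with a cell viability assay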
Description: SANGER: Inhibition of human NCI-H2347 cell growth in a cell viability assay.

KNS-62 = test: cells; assay type: functional, cell-based, Homo sapiens; details: Homo sapiens, KNS-62;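 note: inhibition of cell growth, read out with a cell viability assay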
Description: SANGER: Inhibition of human KNS-62 cell growth in a cell viability assay.

CAL-39 = test: cells; assay type: functional, cell-based, Homo sapiens; details: Homo sapiens, CAL-39;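 note: cell viability assay measuring growth inhibition of CAL-39 cells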
Description: SANGER: Inhibition of human CAL-39 cell growth in a cell viability assay.

MDA-MB-453 = test: cells; assay type: functional, cell-based, Homo sapiens; details: Homo sapiens, MDA-MB-453
Description: SANGER: Inhibition of human MDA-MB-453 cell growth in a cell viability assay.

Structure (SMILES): COc1cc(-c2nn([C@H]3CC[C@H](N4CCN(C(C)=O)CC4)CC3)c3ncnc(N)c23)ccc1NC(=O)c1cc2ccccc2n1C
IC50 (LC-1F): > 5120 nM | IC50 (YT): > 5120 nM | IC50 (SIG-M5): > 5120 nM | IC50 (MONO-MAC-6): > 5120 nM | IC50 (NCCIT): > 5120 nM | IC50 (NCI-H1694): > 5120 nM | IC50 (NCI-H1882): > 5120 nM | IC50 (CA46): > 5120 nM | IC50 (NB7): > 5120 nM | IC50 (IMR-5): > 5120 nM | IC50 (MOLT-13): > 5120 nM | IC50 (WSU-NHL): > 5120 nM | IC50 (NCI-H345): > 5120 nM | IC50 (NCI-H716): > 5120 nM

IC50 (A673): 53.8 nM | IC50 (G-402): 193 nM | IC50 (MCF7): 337 nM | IC50 (Huh-7): 32.8 nM | IC50 (MFE-280): 4590 nM | IC50 (COLO-678): 3310 nM | IC50 (MDA-MB-361): 226 nM | IC50 (HuO-3N1): 2030 nM | IC50 (A204): 97.8 nM | IC50 (OAW-42): 492 nM | IC50 (SCC-25): 523 nM | IC50 (OVCAR-5): 576 nM | IC50 (NCI-H28): 447 nM | IC50 (COLO-741): 1370 nM | IC50 (CP50-MEL-B): 69.6 nM | IC50 (NCI-H661): 202 nM | IC50 (ACHN): 149 nM | IC50 (SW837): 2390 nM | IC50 (HCC1937): 1640 nM | IC50 (NCI-H1573): 7080 nM | IC50 (639-V): 521 nM | IC50 (SW 1116): 8450 nM | IC50 (NB7): 29.3 nM | IC50 (T98G): 606 nM | IC50 (NCI-H2009): 245 nM | IC50 (HSC-4): 213 nM | IC50 (LCLC-97TM1): 917 nM | IC50 (NCI-H2342): 267 nM | IC50 (RT-112): 535 nM | IC50 (KYSE-450): 175 nM | IC50 (T84): 13900 nM | IC50 (NCI-H2347): 1220 nM | IC50 (KNS-62): 559 nM | IC50 (CAL-39): 341 nM | IC50 (MDA-MB-453): 152 nM
Structure (SMILES): CC(C)c1ccccc1Cc1cc(C(=O)Nc2ccc(S(=O)(=O)c3ccccc3C(C)(C)C)cc2)c(O)c(O)c1O

Structure (SMILES): COc1cc2ncn(-c3cc(OCc4ccccc4C(F)(F)F)c(C(N)=O)s3)c2cc1OC [GW843682X]
IC50 (LC-1F): > 256 nM | IC50 (YT): > 256 nM | IC50 (SIG-M5): 21 nM | IC50 (MONO-MAC-6): 34.6 nM | IC50 (NCCIT): 59.9 nM | IC50 (NCI-H1694): 42 nM | IC50 (NCI-H1882): 43.7 nM | IC50 (CA46): > 256 nM | IC50 (NB7): > 256 nM | IC50 (IMR-5): 35.4 nM | IC50 (MOLT-13): 12.1 nM | IC50 (WSU-NHL): > 256 nM | IC50 (NCI-H345): > 256 nM | IC50 (NCI-H716): > 256 nM
